These are literature values, as cited in US12571046B2, “Methods of detecting and treating multiple system atrophy” (THE TRANSLATIONAL GENOMICS RESEARCH INSTITUTE, priority 2020, dated 2026).

The test system of series [1] is conditional QKI knock-out mouse model. To be noted: conditional QKI-KO mouse; PPARβ and RXR agonists; literature ref [82]/[96].
For series [2], the target named is α-synuclein (Homo sapiens, UniProt P37840). To be noted: in vitro; interaction at N-terminus of α-synuclein; literature ref [65].

Regarding `C[C@@H]1CN(c2ccc(OC(F)(F)F)cc2)C[C@H](C)N1S(=O)(=O)c1cccc2c1C[C@@H](C(=O)O)C2.Cc1ccc(S(=O)(=O)O)cc1` [KD3010], the “effect on QKI deficiency-induced demyelination” value in series [1] was “alleviate QKI deficiency-induced demyelination in the mouse”.
Turning to `C=C(c1ccc(C(=O)O)cc1)c1cc2c(cc1C)C(C)(C)CCC2(C)C` [bexarotene], the “effect on QKI deficiency-induced demyelination” value in series [1] is recorded as “alleviate QKI deficiency-induced demyelination in the mouse”.
Regarding Vitamin K, the “effect on α-synuclein fibrillization” value in series [2] was “delays α-synuclein fibrillization”.
